# Assay results as given in ChEMBL document CHEMBL3880428, “Sulfonamide derivative having PGD2 receptor antagonistic activity” (2012).
# How the values were obtained:
# [1] = test system: Rattus norvegicus; assay: (§1) Antiallergic activity in Brown Norway rat model of ovalbumin-induced asthma assessed as inhibition of airway hyperresponsiveness at 10 mg/kg, po qd for 3 consecutive days administered 1 hr prior to fourth exposure of antigen relative to control; type: functional
# [2] = test system: Rattus norvegicus; assay: as §1, with “infiltration of inflammatory cells in bronchoalveoli” for “airway hyperresponsiveness”, “antigen by hemocytometry based light microscopy” for “antigen”; type: functional
# [3] = test system: Rattus norvegicus; assay: Antiallergic activity in Brown Norway rat model of ovalbumin-induced asthma assessed as inhibition of mucus secretion in airway lavage fluid at 10 mg/kg, po qd for 3 consecutive days administered 1 hr prior to fourth exposure of antigen by ELISA relative to control; type: functional
# [4] = test system: HEK293; assay: Selectivity ratio of IC50 for PGD2 receptor in human platelets to IC50 for human EP4 receptor expressed in HEK293 cells by cAMP accumulation assay; type: cell-based
# [5] = test system: HEK293; assay: Selectivity ratio of IC50 for PGD2 receptor in human platelets to IC50 for human TP receptor expressed in HEK293 cells by cAMP accumulation assay; type: cell-based
# [6] = test system: HEK293; assay: Selectivity ratio of IC50 for PGD2 receptor in human platelets to IC50 for human EP3 receptor expressed in HEK293 cells by cAMP accumulation assay; type: cell-based
# [7] = test system: HEK293; assay: Selectivity ratio of IC50 for PGD2 receptor in human platelets to IC50 for human EP1 receptor expressed in HEK293 cells by cAMP accumulation assay; type: cell-based
# [8] = test system: HEK293; assay: Selectivity ratio of IC50 for PGD2 receptor in human platelets to IC50 for human EP2 receptor expressed in HEK293 cells by cAMP accumulation assay; type: cell-based
# [9] = test system: HEK293; assay: Selectivity ratio of IC50 for PGD2 receptor in human platelets to IC50 for human IP receptor expressed in HEK293 cells by cAMP accumulation assay; type: cell-based
# [10] = test system: HEK293; assay: Selectivity ratio of IC50 for PGD2 receptor in human platelets to IC50 for human FP receptor expressed in HEK293 cells by cAMP accumulation assay; type: cell-based
Compound,inhibition in vivo at 10 mg/kg [1] [%],inhibition in vivo at 10 mg/kg [2] [%],inhibition in vivo at 10 mg/kg [3] [%],Ratio IC50 [4],Ratio IC50 [5],Ratio IC50 [6],Ratio IC50 [7],Ratio IC50 [8],Ratio IC50 [9],Ratio IC50 [10]
CC(C)Oc1ccc(S(=O)(=O)N2CCN(c3cccc(OCC(=O)O)c3)CC2)cc1,50,78,78,,,,,,,
CC(C)Oc1ccc(S(=O)(=O)N2CCC(Oc3ccccc3/C=C/C(=O)O)CC2)cc1,,,,> 20,> 20,> 20,> 20,> 20,> 20,> 20
CC(C)Oc1ccc(S(=O)(=O)N2CCN(c3ccc(OCc4ccccc4)c(OCC(=O)O)c3)CC2)cc1,,,,> 20,> 20,> 20,> 20,> 20,> 20,> 20
CC(C)Oc1ccc(S(=O)(=O)N2CCN(c3ccccc3OCC(=O)O)CC2)cc1,59,76,79,,,,,,,
CC(C)Oc1ccc(S(=O)(=O)N2CCN(c3ccc(NC(=O)c4ccccc4)c(OCC(=O)O)c3)CC2)cc1,,,,> 20,> 20,> 20,> 20,> 20,> 20,> 20
CC(C)Oc1ccc(S(=O)(=O)N2CCN(c3cc(OCC(=O)O)cc(-c4cccs4)c3)CC2)cc1,,,,> 20,> 20,> 20,> 20,> 20,> 20,> 20
CC(C)Oc1ccc(S(=O)(=O)N2CCN(c3ccc(C(=O)Nc4nccs4)c(OCC(=O)O)c3)CC2)cc1,,,,> 20,> 20,> 20,> 20,> 20,> 20,> 20
CC(C)Oc1ccc(S(=O)(=O)N2CCN(c3ccc(NC(=O)c4ccno4)c(OCC(=O)O)c3)CC2)cc1,,,,> 20,> 20,> 20,> 20,> 20,> 20,> 20
CC(C)Oc1ccc(S(=O)(=O)N2CCN(c3ccc(-c4ncco4)c(OCC(=O)O)c3)CC2)cn1,,,,> 20,> 20,> 20,> 20,> 20,> 20,> 20
CC(C)Oc1ccc(S(=O)(=O)N2CCC(Oc3ccc(F)cc3CCC(=O)O)CC2)cc1,,,,> 20,> 20,> 20,> 20,> 20,> 20,> 20
